Measured values published in US20190151312A1, “HEPARAN SULFATE BIOSYNTHESIS INHIBITORS FOR THE TREATMENT OF DISEASES” (BioMarin Pharmaceutical Inc., priority 2014, published 2019).

What follows are compounds tested on GM01896 cells (MPS II dermal fibroblasts) (assay: Assay 1: MPS cellular assay, MPS II (heparan sulfate disaccharide biomarkers by LC-MS)). Conditions: Assay 1 for MPS II, heparan sulfate disaccharide biomarkers (I2a4, I2a6, I2S0 and/or I2S6), read-out: IC50 Range.
Format: cell-based, human
Method: Dermal fibroblasts from humans with an MPS disorder and from healthy donors are grown. Cells are expanded and kept in culture for analysis. Human foreskin fibroblasts can be obtained from the American Type Culture Collection (CRL-1634). Human dermal fibroblasts derived from biopsies of individuals are purchased from Coriell Institute: clinically healthy individuals, GM00408, GM00409, GM00200 (clinically unaffected sibling of an individual with metachromatic leukodystrophy), GM05659, GM08398, and GM15871 (clinically unaffected sibling of an individual with unclassified Ehlers-Danlos syndrome); heterozygous MPS I carriers, GM01392, GM01393 and GM0003; homozygous individuals affected with MPS I, GM06214, GM11495, GM00034, GM01391 and GM01256; individuals with MPS II, GM01896, GM03181, GM00615 and GM00298; individuals with MPS IIIA, GM00879, GM00643, GM00934, GM06110 and GM00629; MPS IIIB, GM01426; MPS IIIC, GM05157; MPS IIID, GM05093; and MPS VII, GM00121. All cells are grown in DMEM containing 50 U ml-1 penicillin, […] ml-1 streptomycin, 2 mM glutamine and 10% FBS. Cells are seeded on 15-cm-diameter tissue culture dishes, grown to confluence and maintained in culture for analysis. Sulfamidase activity in cell extracts is measured with 4-methylumbelliferyl-α-D-N-sulfoglucosaminide according the vendors instructions substituting Tris-acetate buffer (pH 6.5; Moscerdam).
Cells are treated with a compound of the invention at a concentration at or below 30 μM for 4 to 21 days. Cell monolayers are washed with phosphate buffered saline and detached by treatment with GIBCO trypsin-EDTA solution (Invitrogen). After centrifugation, the supernatant is removed and the cells are lysed in 0.5 mL of 0.1 N sodium hydroxide. The amount of protein is determined by bicinchoninic acid (BCA assay, Thermo Scientific). GAGs are isolated by anion exchange chromatography and digested with glycosaminoglycan lyases (heparinases I, II, and III, IBEX).
Enzymatically depolymerized GAG preparations are differentially mass labeled by reductive amination with [^12C6]aniline. Briefly, heparan sulfate disaccharides (1-10 pmol) are dried down in a centrifugal evaporator and reacted with [^12C6]aniline or [^13C6]aniline (15 μL, 165 μmol) and 15 μL of 1 M NaCNBH3 (Sigma-Aldrich) freshly prepared in dimethylsulfoxide/acetic acid (7:3, v/v) is added to each sample. Reactions are carried out at 37° C. for 16 h and then dried in a centrifugal evaporator. Unsubstituted amines are reacted with propionic anhydride (Sigma-Aldrich). Dried samples are reconstituted in 20 μL of 50% methanol, and 3 μL of propionic anhydride (Sigma-Aldrich, 23.3 μmol) is added. Reactions are carried out at ˜23° C. for 2 h. Acylated disaccharides are subsequently aniline tagged as described above. Each sample is mixed with commercially available standard unsaturated disaccharides (Seikagaku), standard N-sulfoglucosamine, glucosamine-6-sulfate, N-acetylgalactosamine-4-sulfate and N-acetylgalactosamine-6-sulfate (Sigma-Aldrich), and/or synthesized α-L-idopyranosyluronate-(1,4)-2-N-acetyl-2-deoxy-α/β-D-glucopyranoside (I0S0). All standards are tagged with [^13C6]aniline (Sigma-Aldrich). Samples are then analyzed by LC-MS using an LTQ Orbitrap Discovery electrospray ionization mass spectrometer (Thermo Scientific) equipped with quaternary HPLC pump (Finnigan Surveyor MS pump) and a reverse-phase capillary column as described in J. Biol. Chem. 2008, 283(48), 33674.
MPS II: Assay 1, as described above, was used to determine activity for MPS II using GM01896 cells. […] Extracted ion chromatograms were obtained. Cell viability was monitored using alamar blue or ATP quantification. IC50's were calculated using curve fitting within the ChemInnovation CBIS database system.

Q: For Cc1nn(C)c2cc(-c3cc(Nc4ccc5nn(C)nc5c4)nc(N4CCOCC4)n3)ccc12 [[6-(1,3-dimethyl(1H-indazol-6-yl))-2-morpholin-4-ylpyrimidin-4-yl](2-methyl(2-hydrobenzotriazol-5-yl))amine], which IC50 is on record?
A: 1 to 5 µM

Same assay, conditions: Homo sapiens, Fibroblast, Assay 1 for MPS II, heparan sulfate disaccharide biomarkers (I2a4, I2a6, I2S0 and/or I2S6), read-out: IC50 Range

Q: Which IC50 does the source give for Cn1nc(NCCCN2CCOCC2)c2ccc(-c3cc(Nc4ccc(Cl)cc4)nc(N4CCOCC4)n3)cc21 [(4-chlorophenyl)(6-{1-methyl-3-[(3-morpholin-4-ylpropyl)amino](1H-indazol-6-yl)}-2-morpholin-4-ylpyrimidin-4-yl)amine] here?
A: 0.5 to 1 µM

Q: Cc1nc(-c2ccc(Nc3cc(-c4ccc5cnn(C)c5c4)nc(N4CCOCC4)n3)cc2)no1 [[4-(5-methyl(1,2,4-oxadiazol-3-yl))phenyl][6-(1-methyl(1H-indazol-6-yl))-2-morpholin-4-ylpyrimidin-4-yl]amine] was tested. Which IC50 did it give?
A: 1 to 5 µM

Q: How did the IC50 turn out when Cn1nc(NCCCCN2CCCC2)c2ccc(-c3cc(Nc4ccc(Cl)cc4)nc(N4CCOCC4)n3)cc21 [(4-chlorophenyl)(6-{1-methyl-3-[(4-pyrrolidinylbutyl)amino](1H-indazol-6-yl)}-2-morpholin-4-ylpyrimidin-4-yl)amine] was run?
A: 0.5 to 1 µM

Q: For CNC(=O)c1ccc(Nc2cc(-c3ccc4c(cnn4C)c3)nc(N3CCOCC3)n2)cn1 [N-methyl(5-{[6-(1-methyl(1H-indazol-5-yl))-2-morpholin-4-ylpyrimidin-4-yl]amino}(2-pyridyl))carboxamide], which IC50 is on record?
A: 0.5 to 1 µM

Q: With Cn1ncc2ccc(-c3cc(Nc4ccccc4)nc(N4CCOCC4)n3)cc21 [6-(1-methyl-1H-indazol-6-yl)-2-morpholino-N-phenylpyrimidin-4-amine] as the compound, how does the IC50 read?
A: 1 to 5 µM

Q: For Cn1ncc2ccc(-c3cc(Nc4ccc(-c5ncco5)cc4)nc(N4CCOCC4)n3)cc21 [[6-(1-methyl(1H-indazol-6-yl))-2-morpholin-4-ylpyrimidin-4-yl](4-(1,3-oxazol-2-yl)phenyl)amine], which IC50 is on record?
A: 0.5 to 1 µM

Q: Which IC50 does the source give for CN1CCN(CCc2nn(C)c3cc(-c4cc(Nc5ccc(Cl)cc5)nc(N5CCOCC5)n4)ccc23)CC1 [(4-chlorophenyl)(6-{1-methyl-3-[2-(4-methylpiperazinyl)ethyl](1H-indazol-6-yl)}-2-morpholin-4-ylpyrimidin-4-yl)amine] here?
A: 0.5 to 1 µM

Q: For Cc1ccc(Nc2cc(-c3ccc4cnn(C)c4c3)nc(N3CCOCC3)n2)cc1 [[6-(1-methyl(1H-indazol-6-yl))-2-morpholin-4-ylpyrimidin-4-yl](4-methylphenyl)amine], which IC50 is on record?
A: 1 to 5 µM

Q: How did the IC50 turn out when Cn1ccc2ccc(Nc3cc(-c4ccc5cnn(C)c5c4)nc(N4CCOCC4)n3)cc21 [[6-(1-methyl(1H-indazol-6-yl))-2-morpholin-4-ylpyrimidin-4-yl](1-methylindol-6-yl)amine] was run?
A: < 0.5 µM

Q: With Clc1ccc(Nc2cc(-c3ccc4cnn(CCCN5CCCC5)c4c3)nc(N3CCOCC3)n2)cc1 [(4-chlorophenyl){2-morpholin-4-yl-6-[1-(3-pyrrolidinylpropyl)(1H-indazol-6-yl)]pyrimidin-4-yl}amine] as the compound, how does the IC50 read?
A: 1 to 5 µM

Q: Which IC50 does the source give for CCNC(=O)c1ccc(Nc2cc(-c3ccc4ncn(C)c4c3)nc(N3CCOCC3)n2)cc1 [N-ethyl(4-{[6-(1-methylbenzimidazol-6-yl)-2-morpholin-4-ylpyrimidin-4-yl]amino}phenyl)carboxamide] here?
A: 1 to 5 µM

Q: Which IC50 does the source give for Cc1nn(C)c2cc(-c3cc(Nc4ccc(-c5[nH]ncc5F)cc4)nc(N4CCOCC4)n3)ccc12 [[6-(1,3-dimethyl(1H-indazol-6-yl))-2-morpholin-4-ylpyrimidin-4-yl][4-(4-fluoropyrazol-5-yl)phenyl]amine] here?
A: 0.5 to 1 µM

Q: How did the IC50 turn out when Clc1ccc(Nc2cc(-c3ccc4nn(CC5CC5)cc4c3)nc(N3CCOCC3)n2)cc1 [(4-chlorophenyl){6-[2-(cyclopropylmethyl)(2H-indazol-5-yl)]-2-morpholin-4-ylpyrimidin-4-yl}amine] was run?
A: 1 to 5 µM

Q: COc1cc(Nc2cc(-c3ccc4cnn(C)c4c3)nc(N3CCOCC3)n2)ccn1 [(2-methoxy(4-pyridyl))[6-(1-methyl(1H-indazol-6-yl))-2-morpholin-4-ylpyrimidin-4-yl]amine] was tested. Which IC50 did it give?
A: 0.5 to 1 µM

Q: Which IC50 does the source give for Cc1nn(C)c2cc(-c3cc(Nc4ccc5cc(C)n(C)c5c4)nc(N4CCOCC4)n3)ccc12 [[6-(1,3-dimethyl(1H-indazol-6-yl))-2-morpholin-4-ylpyrimidin-4-yl](1,2-dimethylindol-6-yl)amine] here?
A: 0.5 to 1 µM

Q: How did the IC50 turn out when Cc1nc2ccc(-c3cc(Nc4ccc(Cl)cc4)nc(N4CCOCC4)n3)cc2n1C1CCC1 [(4-chlorophenyl)[6-(1-cyclobutyl-2-methylbenzimidazol-6-yl)-2-morpholin-4-ylpyrimidin-4-yl]amine] was run?
A: 1 to 5 µM

Q: Clc1ccc(Nc2cc(-c3ccc4cnn(CC5CC5)c4c3)nc(N3CCOCC3)n2)cc1 [(4-chlorophenyl){6-[1-(cyclopropylmethyl)(1H-indazol-6-yl)]-2-morpholin-4-ylpyrimidin-4-yl}amine] was tested. Which IC50 did it give?
A: 1 to 5 µM

Q: With Cc1ccc(Nc2cc(-c3ccc4c(c3)ncn4C)nc(N3CCOCC3)n2)cc1 [[6-(1-methylbenzimidazol-5-yl)-2-morpholin-4-ylpyrimidin-4-yl](4-methylphenyl)amine] as the compound, how does the IC50 read?
A: 0.5 to 1 µM

Q: How did the IC50 turn out when COc1cc(Nc2cc(-c3ccc4ncn(C)c4c3)nc(N3CCOCC3)n2)ccn1 [(2-methoxy(4-pyridyl))[6-(1-methylbenzimidazol-6-yl)-2-morpholin-4-ylpyrimidin-4-yl]amine] was run?
A: 0.5 to 1 µM

Q: How did the IC50 turn out when Cn1ncc2ccc(-c3cc(Nc4ccc(C(=O)NC5(C)CC5)cc4)nc(N4CCOCC4)n3)cc21 [(4-{[6-(1-methyl(1H-indazol-6-yl))-2-morpholin-4-ylpyrimidin-4-yl]amino}phenyl)-N-(methylcyclopropyl)carboxamide] was run?
A: 1 to 5 µM

Q: For Cc1nn(C)c2cc(-c3cc(Nc4ccc(-c5cnn[nH]5)cc4)nc(N4CCOCC4)n3)ccc12 [(4-(1H-1,2,3-triazol-5-yl)phenyl)[6-(1,3-dimethyl(1H-indazol-6-yl))-2-morpholin-4-ylpyrimidin-4-yl]amine], which IC50 is on record?
A: 0.5 to 1 µM

Q: With Cn1nc(CCN2CCCC2)c2ccc(-c3cc(Nc4ccc(Cl)cc4)nc(N4CCOCC4)n3)cc21 [(4-chlorophenyl){6-[1-methyl-3-(2-pyrrolidinylethyl)(1H-indazol-6-yl)]-2-morpholin-4-ylpyrimidin-4-yl}amine] as the compound, how does the IC50 read?
A: 0.5 to 1 µM

Q: How did the IC50 turn out when COCCn1cnc2ccc(-c3cc(Nc4ccc(C(=O)OC)cc4)nc(N4CCOCC4)n3)cc21 [methyl 4-({6-[1-(2-methoxyethyl)benzimidazol-6-yl]-2-morpholin-4-ylpyrimidin-4-yl}amino)benzoate] was run?
A: < 0.5 µM

Q: Cn1cnc2ccc(-c3cc(Nc4ccc(Cl)cc4)nc(N4CCOCC4)n3)cc21 [(4-chlorophenyl)[6-(1-methylbenzimidazol-6-yl)-2-morpholin-4-ylpyrimidin-4-yl]amine] was tested. Which IC50 did it give?
A: < 0.5 µM

Q: Which IC50 does the source give for Clc1ccc(Nc2cc(-c3ccc4[nH]ncc4c3)nc(N3CCOCC3)n2)cc1 [N-(4-chlorophenyl)-6-(1H-indazol-5-yl)-2-morpholinopyrimidin-4-amine] here?
A: 1 to 5 µM

Q: Cn1cnc2ccc(-c3cc(Nc4ccccc4)nc(N4CCOCC4)n3)cc21 [[6-(1-methylbenzimidazol-6-yl)-2-morpholin-4-ylpyrimidin-4-yl]phenylamine] was tested. Which IC50 did it give?
A: 1 to 5 µM

Q: With CNC(=O)c1ccc(Nc2cc(-c3ccc4cn(CC5CC5)nc4c3)nc(N3CCOCC3)n2)cn1 [[5-({6-[2-(cyclopropylmethyl)(2H-indazol-6-yl)]-2-morpholin-4-ylpyrimidin-4-yl}amino)(2-pyridyl)]-N-methylcarboxamide] as the compound, how does the IC50 read?
A: 1 to 5 µM

Q: How did the IC50 turn out when CN1CCN(CCCn2ncc3ccc(-c4cc(Nc5ccc(Cl)cc5)nc(N5CCOCC5)n4)cc32)CC1 [(4-chlorophenyl)(6-{1-[3-(4-methylpiperazinyl)propyl](1H-indazol-6-yl)}-2-morpholin-4-ylpyrimidin-4-yl)amine] was run?
A: 0.5 to 1 µM
